How the values were obtained:
[1] = Drug excretion in Wistar rat feces at 4 mg/kg, iv measured after 2 hrs; type: ADME, organism-based; conditions: faeces, read-out: Drug excretion
[2] = Drug uptake in Wistar rat spleen at 6 mg/kg, iv measured after 8 hrs; type: ADME, organism-based; conditions: in vivo
[3] = Drug excretion in Wistar rat urine at 4 mg/kg, iv measured after 48 hrs; type: ADME, organism-based; conditions: read-out: Drug excretion
[4] = Drug excretion in Wistar rat feces at 4 mg/kg, iv measured after 12 hrs; type: ADME, organism-based; conditions: faeces, read-out: Drug excretion
[5] = Drug uptake in Wistar rat pancreas at 6 mg/kg, iv measured after 8 hrs; type: ADME, organism-based; conditions: in vivo
NCI-H460 [6] = assay: Antitumor activity against human NCI-H460 cells xenografted in nude mouse assessed as inhibition of tumor volume at 3 mg/kg, iv administered once in every 2 days for 14 consecutive days cotreated with 25 mg/kg gefitinib once daily for 14 consecutive days relative to control; type: functional
NCI-H460 [7] = assay: Antitumor activity against human NCI-H460 cells xenografted in nude mouse assessed as inhibition of tumor weight at 3 mg/kg, iv administered once in every 2 days for 14 consecutive days relative to control; type: functional; conditions: 48 h
[8] = Drug uptake in Wistar rat large intestine at 6 mg/kg, iv measured after 8 hrs; type: ADME, organism-based; conditions: in vivo
[9] = Cmax in Wistar rat at 8 mg/kg, iv; type: ADME, organism-based; design: dose 8 mg/kg, route intravenous; conditions: in vivo
NCI-H460 [10] = assay: Antitumor activity against human NCI-H460 cells xenografted in nude mouse assessed as inhibition of tumor volume at 3 mg/kg, iv administered once in every 2 days for 14 consecutive days relative to control; type: functional; conditions: 48 h
[11] = Protein binding in human plasma at 2 uM after 4 hrs by LC-MS/MS analysis; type: ADME, cell-free; conditions: read-out: PPB (converted)
[12] = Drug excretion in Wistar rat feces at 4 mg/kg, iv measured after 4 hrs; type: ADME, organism-based; conditions: faeces, read-out: Drug excretion
[13] = Drug uptake in Wistar rat heart at 6 mg/kg, iv measured after 0.5 hrs; type: ADME, organism-based; conditions: in vivo
Mus musculus [14] = assay: Toxicity in Balb/c mouse assessed as mortality at 10 to 15 mg/kg, iv administered three times in a day every 2 days for 15 consecutive days; type: organism-based; conditions: in vivo, 48 h
[15] = Drug uptake in Wistar rat kidney at 6 mg/kg, iv measured after 0.5 hrs; type: ADME, organism-based; conditions: in vivo
Mus musculus [16] = assay: Toxicity in nude mouse xenografted with human NCI-H460 cells assessed as death at 3 to 9 mg/kg, iv administered once in every 2 days for 14 consecutive days; type: organism-based; conditions: in vivo, 48 h
[17] = Apparent volume of distribution in Wistar rat at 4 mg/kg, iv; type: ADME, organism-based; conditions: in vivo, read-out: Vz
[18] = Drug uptake in Wistar rat small intestine at 6 mg/kg, iv measured after 4 hrs; type: ADME, organism-based; conditions: in vivo
[19] = Stability in rat liver microsomes at 50 uM after 5 mins in presence of NADPH by LC-MS/MS analysis; type: ADME, microsome; conditions: liver microsomes, read-out: Stability
[20] = Stability in rat liver microsomes at 50 uM after 210 mins in presence of NADPH by LC-MS/MS analysis; type: ADME, microsome; conditions: liver microsomes, read-out: Stability
[21] = Stability in rat liver microsomes at 50 uM after 60 mins in presence of NADPH by LC-MS/MS analysis; type: ADME, microsome; conditions: read-out: Stability
[22] = Drug uptake in Wistar rat spleen at 6 mg/kg, iv measured after 12 hrs; type: ADME, organism-based; conditions: in vivo
[23] = Drug excretion in Wistar rat urine at 4 mg/kg, iv measured after 4 hrs; type: ADME, organism-based; conditions: read-out: Drug excretion
[24] = Drug uptake in Wistar rat large intestine at 6 mg/kg, iv measured after 1 hr; type: ADME, organism-based; conditions: in vivo
[25] = Drug uptake in Wistar rat lungs at 6 mg/kg, iv measured after 0.5 hrs; type: ADME, organism-based, Lung; conditions: in vivo
[26] = Drug uptake in Wistar rat kidney at 6 mg/kg, iv measured after 8 hrs; type: ADME, organism-based; conditions: in vivo
[27] = Drug uptake in Wistar rat heart at 6 mg/kg, iv measured after 12 hrs; type: ADME, organism-based; conditions: in vivo
[28] = Drug uptake in Wistar rat heart at 6 mg/kg, iv measured after 1 hr; type: ADME, organism-based; conditions: in vivo
[29] = Stability in rat liver microsomes at 50 uM after 20 mins in presence of NADPH by LC-MS/MS analysis; type: ADME, microsome; conditions: read-out: Stability
[30] = Half life in Wistar rat at 4 mg/kg, iv; type: ADME, organism-based; conditions: in vivo
Mus musculus [31] = assay: Toxicity in nude mouse xenografted with human NCI-H460 cells assessed as body weight at 6 mg/kg, iv administered once in every 2 days for 14 consecutive days (reference value: 20.6 +/- 1.5 g); type: organism-based; conditions: in vivo, 48 h
NCI-H460 [32] = assay: Antitumor activity against human NCI-H460 cells xenografted in nude mouse assessed as inhibition of tumor weight at 6 mg/kg, iv administered once in every 2 days for 14 consecutive days relative to control; type: functional; conditions: 48 h
[33] = Stability in rat plasma at 1 uM after 20 mins by LC-MS/MS analysis; type: ADME, cell-free; conditions: read-out: Stability
[34] = Drug uptake in Wistar rat kidney at 6 mg/kg, iv measured after 12 hrs; type: ADME, organism-based; conditions: in vivo
[35] = Drug excretion in Wistar rat feces at 4 mg/kg, iv measured after 24 hrs; type: ADME, organism-based; conditions: faeces, read-out: Drug excretion
[36] = Clearance in rat liver microsomes at 50 uM in presence of NADPH by LC-MS/MS analysis; type: ADME, microsome; conditions: read-out: CLH
[37] = Stability in rat plasma at 1 uM after 120 mins by LC-MS/MS analysis; type: ADME, cell-free; conditions: read-out: Stability
Rattus norvegicus = assay: AUC (0 to infinity) in Wistar rat at 8 mg/kg, iv; type: ADME, organism-based; design: dose 8 mg/kg, route intravenous, time infinity; conditions: in vivo
Mus musculus [38] = assay: Toxicity in nude mouse xenografted with human NCI-H460 cells assessed as body weight at 6 mg/kg, iv administered once in every 2 days for 14 consecutive days cotreated with 50 mg/kg gefitinib once daily for 14 consecutive days (reference value: 20.6 +/- 1.5 g); type: organism-based; conditions: in vivo, 48 h
[39] = Drug excretion in Wistar rat urine at 4 mg/kg, iv measured after 108 hrs; type: ADME, organism-based; conditions: read-out: Drug excretion
[40] = Drug uptake in Wistar rat spleen at 6 mg/kg, iv measured after 4 hrs; type: ADME, organism-based; conditions: in vivo
[41] = Drug uptake in Wistar rat spleen at 6 mg/kg, iv measured after 1 hr; type: ADME, organism-based; conditions: in vivo
[42] = Drug uptake in Wistar rat large intestine at 6 mg/kg, iv measured after 12 hrs; type: ADME, organism-based; conditions: in vivo
[43] = Stability in rat liver microsomes at 50 uM after 120 mins in presence of NADPH by LC-MS/MS analysis; type: ADME, microsome; conditions: read-out: Stability
[44] = Drug excretion in Wistar rat feces at 4 mg/kg, iv measured after 8 hrs; type: ADME, organism-based; conditions: faeces, read-out: Drug excretion
[45] = Stability in rat liver microsomes at 50 uM after 40 mins in presence of NADPH by LC-MS/MS analysis; type: ADME, microsome; conditions: read-out: Stability
Mus musculus [46] = assay: Toxicity in nude mouse xenografted with human NCI-H460 cells assessed as body weight at 3 mg/kg, iv administered once in every 2 days for 14 consecutive days cotreated with 25 mg/kg gefitinib once daily for 14 consecutive days (reference value: 20.6 +/- 1.5 g); type: organism-based; conditions: in vivo, 48 h
[47] = Drug uptake in Wistar rat brain at 6 mg/kg, iv measured after 4 hrs; type: ADME, organism-based; conditions: in vivo
[48] = Stability in rat liver microsomes at 50 uM after 270 mins in presence of NADPH by LC-MS/MS analysis; type: ADME, microsome; conditions: 4.5 h
[49] = Drug uptake in Wistar rat pancreas at 6 mg/kg, iv measured after 0.5 hrs; type: ADME, organism-based; conditions: in vivo

## [2H]/C(c1nc[nH]c1C(C)(C)C)=c1/[nH]c(=O)/c(=C/c2ccccc2)[nH]c1=O
[1]
  dose excreted at 2 h: 0%
[2]
  Drug uptake: 773.1 ng/mL/g
[3]
  dose excreted at 48 h: 0.26%
[4]
  dose excreted at 12 h: 0.12%
[5]
  Drug uptake: 399 ng/mL/g
NCI-H460 [6]
  inhibition (INH): 57.6%
NCI-H460 [7]
  inhibition in vivo at 3 mg/kg: 43%
[8]
  Drug uptake: 1188.5 ng/mL/g
[9]
  Cmax: 20100 ng/mL
NCI-H460 [10]
  inhibition in vivo at 3 mg/kg: 46.9%
[11]
  fraction unbound at 4 h, 2 µM: 0.021
[12]
  dose excreted at 4 h: 0.11%
[13]
  Drug uptake: 2189.8 ng/mL/g
Mus musculus [14]
  Activity: Non-Toxic
[15]
  Drug uptake: 7423.8 ng/mL/g
Mus musculus [16]
  Activity: Non-Toxic
[17]
  Vd: 16.4 L/kg
[18]
  Drug uptake: 336.9 ng/mL/g
[19]
  remaining at 5 min, 50 µM: 84.8%
[20]
  remaining at 3.5 h, 50 µM: 31.5%
[21]
  remaining at 1 h, 50 µM: 47.1%
[22]
  Drug uptake: 287.3 ng/mL/g
[23]
  dose excreted at 4 h: 0.27%
[24]
  Drug uptake: 1421.7 ng/mL/g
[25]
  Drug uptake: 13471.1 ng/mL/g
[26]
  Drug uptake: 636.5 ng/mL/g
[27]
  Drug uptake: 54.7 ng/mL/g
[28]
  Drug uptake: 3836.3 ng/mL/g
[29]
  remaining at 20 min, 50 µM: 74.8%
[30]
  half-life: 2.27 h
Mus musculus [31]
  Activity: 21.1 g
NCI-H460 [32]
  inhibition in vivo at 6 mg/kg: 49.5%
[33]
  remaining at 20 min, 1 µM: 95.8%
[34]
  Drug uptake: 175.1 ng/mL/g
[35]
  dose excreted at 24 h: 5.65%
[36]
  microsomal CLint at 50 µM: 16.3 µL/min/mg
[37]
  remaining at 2 h, 1 µM: 101%
Rattus norvegicus
  AUC: 5808.24 ng·h/mL
Mus musculus [38]
  Activity: 18.5 g
[39]
  dose excreted at 108 h: 0.67%
[40]
  Drug uptake: 1519.6 ng/mL/g
[41]
  Drug uptake: 7146.9 ng/mL/g
[42]
  Drug uptake: 381 ng/mL/g
[43]
  remaining at 2 h, 50 µM: 31.1%
[44]
  dose excreted at 8 h: 0.11%
[45]
  remaining at 40 min, 50 µM: 56.5%
Mus musculus [46]
  Activity: 19.8 g
[47]
  Drug uptake: 166.5 ng/mL/g
[48]
  Stability: 35.33%
[49]
  Drug uptake: 7096.2 ng/mL/g
